Measurements taken from patent US6380198B1 (Laboratoire Medidom S.A., priority 1997, dated 2002).
Where “and” joins values, the source holds several entries; their conditions need not be identical. Identical values can stand only once. Like-named read-outs stand apart in the source and are kept apart here.

What was measured:
[1] = tested on: intraocular pressure of rabbits showing normal baseline intraocular pressure; assay: Intraocular pressure in rabbits with normal intraocular pressure after topical instillation; assay type: in vivo, rabbit (Vienna Blue, pigmented)
[2] = tested on: intraocular pressure of rabbits with ocular hypertension; assay: Intraocular pressure in rabbits with ocular hypertension induced by α-chymotrypsin; assay type: in vivo, rabbit (Vienna Blue, pigmented)
[3] = tested on: cornea (corneal thickness)
[4] = tested on: intraocular pressure; conditions: general statement on the literature; cited from earlier work
[5] = tested on: intraocular pressure; conditions: cited from earlier work
[6] = 50 μl eye-drops, 0.050% flunarizine, equimolar comparators, 0.5% timolol

## COc1ccc(CCN(C)CCCC(C#N)(c2ccc(OC)c(OC)c2)C(C)C)cc1OC (centres unmarked) [verapamil]
[1]; [6]
  Effect on intraocular pressure in rabbits with normal pressure, in words: neither the verapamil formulation nor the diltiazem formulation, both using the same vehicle as MEG 01, did produce any intraocular pressure decrease
[1]; Table 1, average ± S.D. of 4 rabbits, 30 min after instillation, 50 μl eye-drops: 0.050% flunarizine, 0.056% verapamil, 0.051% diltiazem, 0.043% nifedipine
  Intraocular pressure (mmHg) at the time (min): 30, average ± S.D.: 15 ± 1.3 mmHg
[1]; Table 1, average ± S.D. of 4 rabbits, 60 min after instillation, 50 μl eye-drops: 0.050% flunarizine, 0.056% verapamil, 0.051% diltiazem, 0.043% nifedipine
  Intraocular pressure (mmHg) at the time (min): 60, average ± S.D.: 14.7 ± 0.5 mmHg
[1]; Table 1, average ± S.D. of 4 rabbits, 90 min after instillation, 50 μl eye-drops: 0.050% flunarizine, 0.056% verapamil, 0.051% diltiazem, 0.043% nifedipine
  Intraocular pressure (mmHg) at the time (min): 90, average ± S.D.: 14 ± 1.0 mmHg
[1]; Table 1, average ± S.D. of 4 rabbits, 120 min after instillation, 50 μl eye-drops: 0.050% flunarizine, 0.056% verapamil, 0.051% diltiazem, 0.043% nifedipine
  Intraocular pressure (mmHg) at the time (min): 120, average ± S.D.: 15.7 ± 0.5 mmHg
[1]; Table 1, average ± S.D. of 4 rabbits, 180 min after instillation, 50 μl eye-drops: 0.050% flunarizine, 0.056% verapamil, 0.051% diltiazem, 0.043% nifedipine
  Intraocular pressure (mmHg) at the time (min): 180, average ± S.D.: 16.2 ± 0.5 mmHg
[1]; Table 1, average ± S.D. of 4 rabbits, 240 min after instillation, 50 μl eye-drops: 0.050% flunarizine, 0.056% verapamil, 0.051% diltiazem, 0.043% nifedipine
  Intraocular pressure (mmHg) at the time (min): 240, average ± S.D.: 16.5 ± 1.0 mmHg
[1]; Table 1, average ± S.D. of 4 rabbits, time 0 = 15 min before instillation (baseline), 50 μl eye-drops: 0.050% flunarizine, 0.056% verapamil, 0.051% diltiazem, 0.043% nifedipine
  Intraocular pressure (mmHg) at the time (min): 0, average ± S.D.: 16 ± 0.8 mmHg
[1]; Table 1, individual rabbit, right eye, 30 min after instillation, 50 μl eye-drops: 0.050% flunarizine, 0.056% verapamil, 0.051% diltiazem, 0.043% nifedipine
  Intraocular pressure (mmHg) at the time (min): 30: 16 mmHg and 14 mmHg and 17 mmHg and 15 mmHg
[1]; Table 1, individual rabbit, right eye, 60 min after instillation, 50 μl eye-drops: 0.050% flunarizine, 0.056% verapamil, 0.051% diltiazem, 0.043% nifedipine
  Intraocular pressure (mmHg) at the time (min): 60: 15 mmHg (3×) and 14 mmHg
[1]; Table 1, individual rabbit, right eye, 90 min after instillation, 50 μl eye-drops: 0.050% flunarizine, 0.056% verapamil, 0.051% diltiazem, 0.043% nifedipine
  Intraocular pressure (mmHg) at the time (min): 90: 15 mmHg (3×) and 13 mmHg
[1]; Table 1, individual rabbit, right eye, 120 min after instillation, 50 μl eye-drops: 0.050% flunarizine, 0.056% verapamil, 0.051% diltiazem, 0.043% nifedipine
  Intraocular pressure (mmHg) at the time (min): 120: 16 mmHg (3×) and 13 mmHg
[1]; Table 1, individual rabbit, right eye, 180 min after instillation, 50 μl eye-drops: 0.050% flunarizine, 0.056% verapamil, 0.051% diltiazem, 0.043% nifedipine
  Intraocular pressure (mmHg) at the time (min): 180: 16 mmHg (3×) and 17 mmHg
[1]; Table 1, individual rabbit, right eye, 240 min after instillation, 50 μl eye-drops: 0.050% flunarizine, 0.056% verapamil, 0.051% diltiazem, 0.043% nifedipine
  Intraocular pressure (mmHg) at the time (min): 240: 17 mmHg (3×) and 15 mmHg
[1]; Table 1, individual rabbit, right eye, time 0 = 15 min before instillation (baseline), 50 μl eye-drops: 0.050% flunarizine, 0.056% verapamil, 0.051% diltiazem, 0.043% nifedipine
  Intraocular pressure (mmHg) at the time (min): 0: 17 mmHg and 15 mmHg and 16 mmHg (2×)
[2]; [6]
  Effect on intraocular pressure in rabbits with ocular hypertension, in words: do not show any significant reduction
[2]; Table 3, hypertensive rabbits, average ± S.D. of 4 rabbits, 30 min after instillation, 50 μl eye-drops: 0.050% flunarizine, 0.056% verapamil, 0.051% diltiazem, 0.043% nifedipine
  Intraocular pressure (mmHg) at the time (min): 30, average ± S.D.: 48.7 ± 6.5 mmHg
[2]; Table 3, hypertensive rabbits, average ± S.D. of 4 rabbits, 60 min after instillation, 50 μl eye-drops: 0.050% flunarizine, 0.056% verapamil, 0.051% diltiazem, 0.043% nifedipine
  Intraocular pressure (mmHg) at the time (min): 60, average ± S.D.: 50.0 ± 5.47 mmHg
[2]; Table 3, hypertensive rabbits, average ± S.D. of 4 rabbits, 90 min after instillation, 50 μl eye-drops: 0.050% flunarizine, 0.056% verapamil, 0.051% diltiazem, 0.043% nifedipine
  Intraocular pressure (mmHg) at the time (min): 90, average ± S.D.: 48.0 ± 5.94 mmHg
[2]; Table 3, hypertensive rabbits, average ± S.D. of 4 rabbits, 120 min after instillation, 50 μl eye-drops: 0.050% flunarizine, 0.056% verapamil, 0.051% diltiazem, 0.043% nifedipine
  Intraocular pressure (mmHg) at the time (min): 120, average ± S.D.: 48.5 ± 5.97 mmHg
[2]; Table 3, hypertensive rabbits, average ± S.D. of 4 rabbits, 180 min after instillation, 50 μl eye-drops: 0.050% flunarizine, 0.056% verapamil, 0.051% diltiazem, 0.043% nifedipine
  Intraocular pressure (mmHg) at the time (min): 180, average ± S.D.: 48.75 ± 6.39 mmHg
[2]; Table 3, hypertensive rabbits, average ± S.D. of 4 rabbits, 240 min after instillation, 50 μl eye-drops: 0.050% flunarizine, 0.056% verapamil, 0.051% diltiazem, 0.043% nifedipine
  Intraocular pressure (mmHg) at the time (min): 240, average ± S.D.: 49.5 ± 5.44 mmHg
[2]; Table 3, hypertensive rabbits, average ± S.D. of 4 rabbits, time 0 = 15 min before instillation (baseline), 50 μl eye-drops: 0.050% flunarizine, 0.056% verapamil, 0.051% diltiazem, 0.043% nifedipine
  Intraocular pressure (mmHg) at the time (min): 0, average ± S.D.: 49.0 ± 5.94 mmHg
[2]; Table 3, hypertensive rabbits, individual rabbit, right eye, 30 min after instillation, 50 μl eye-drops: 0.050% flunarizine, 0.056% verapamil, 0.051% diltiazem, 0.043% nifedipine
  Intraocular pressure (mmHg) at the time (min): 30: 55 mmHg and 48 mmHg and 40 mmHg and 52 mmHg
[2]; Table 3, hypertensive rabbits, individual rabbit, right eye, 60 min after instillation, 50 μl eye-drops: 0.050% flunarizine, 0.056% verapamil, 0.051% diltiazem, 0.043% nifedipine
  Intraocular pressure (mmHg) at the time (min): 60: 56 mmHg and 49 mmHg and 43 mmHg and 52 mmHg
[2]; Table 3, hypertensive rabbits, individual rabbit, right eye, 90 min after instillation, 50 μl eye-drops: 0.050% flunarizine, 0.056% verapamil, 0.051% diltiazem, 0.043% nifedipine
  Intraocular pressure (mmHg) at the time (min): 90: 55 mmHg and 46 mmHg and 41 mmHg and 50 mmHg
[2]; Table 3, hypertensive rabbits, individual rabbit, right eye, 120 min after instillation, 50 μl eye-drops: 0.050% flunarizine, 0.056% verapamil, 0.051% diltiazem, 0.043% nifedipine
  Intraocular pressure (mmHg) at the time (min): 120: 55 mmHg and 47 mmHg and 41 mmHg and 51 mmHg
[2]; Table 3, hypertensive rabbits, individual rabbit, right eye, 180 min after instillation, 50 μl eye-drops: 0.050% flunarizine, 0.056% verapamil, 0.051% diltiazem, 0.043% nifedipine
  Intraocular pressure (mmHg) at the time (min): 180: 57 mmHg and 46 mmHg and 42 mmHg and 50 mmHg
[2]; Table 3, hypertensive rabbits, individual rabbit, right eye, 240 min after instillation, 50 μl eye-drops: 0.050% flunarizine, 0.056% verapamil, 0.051% diltiazem, 0.043% nifedipine
  Intraocular pressure (mmHg) at the time (min): 240: 56 mmHg and 48 mmHg and 43 mmHg and 51 mmHg
[2]; Table 3, hypertensive rabbits, individual rabbit, right eye, time 0 = 15 min before instillation (baseline), 50 μl eye-drops: 0.050% flunarizine, 0.056% verapamil, 0.051% diltiazem, 0.043% nifedipine
  Intraocular pressure (mmHg) at the time (min): 0: 56 mmHg and 47 mmHg and 42 mmHg and 51 mmHg
[3]; individual rabbit, treated right eye (RE), 1 hour after single 50 μl instillation, 0.050% flunarizine, 0.056% verapamil, 0.051% diltiazem, 0.043% nifedipine
  Corneal thickness (mm): 1 hour: 0.376 mm and 0.398 mm and 0.387 mm and 0.401 mm
[3]; individual rabbit, treated right eye (RE), 2 hours after single 50 μl instillation, 0.050% flunarizine, 0.056% verapamil, 0.051% diltiazem, 0.043% nifedipine
  Corneal thickness (mm): 2 hours: 0.385 mm and 0.406 mm and 0.400 mm and 0.494 mm
[3]; individual rabbit, treated right eye (RE), 3 hours after single 50 μl instillation, 0.050% flunarizine, 0.056% verapamil, 0.051% diltiazem, 0.043% nifedipine
  Corneal thickness (mm): 3 hours: 0.383 mm and 0.402 mm (2×) and 0.410 mm
[3]; individual rabbit, treated right eye (RE), before single 50 μl instillation, 0.050% flunarizine, 0.056% verapamil, 0.051% diltiazem, 0.043% nifedipine
  Corneal thickness (mm): Baseline: 0.356 mm and 0.384 mm and 0.372 mm and 0.392 mm
[3]; ophthalmic solution containing 0.056% verapamil
  Increase in corneal thickness: 15-20 μm/hour
[3]; single 50 μl instillation, observed up to 3 hours
  Corneal swelling / alteration of corneal thickness, in words: caused comeal swelling
[4]
  Intraocular pressure after administration to man: reduction of the intraocular pressure
[5]; Beatty et al. 1984
  Intraocular pressure after oral administration to rabbits: did not evidence any effect
  Intraocular pressure after topical administration to rabbits: increase in the intraocular pressure
[5]; Payene et al. 1990
  Intraocular pressure after systemic administration to rabbits: reduction in the intraocular pressure
  Intraocular pressure after topical administration to rabbits: did not detect any significant effect
